Measured values as given in patent publication US9758561B2 (priority 2014, dated 2017).
Values after ≈ are worked out from the molar mass of the structure shown. Read-outs that look alike come from different tables or passages of the source.

Key:
[1] = Stability testing in solution, 7 days at 40° C. (HPLC-UV); type: physicochemical; conditions: for Stability pH 4.5: pH 4.5, 7 days at 40° C. in solution; for Stability pH 7.4: pH 7.4, 7 days at 40° C. in solution
Procedure: After that time course, the sample was centrifuged for 20 min at 4500 rpm and 0.2 μL of the supernatant were analysed with HPLC-UV.
For determination of the amount of the remaining peptide, the peak areas of the target compound at t0 and t7 were compared, resulting in “% remaining peptide”, following the equation % remaining peptide=[(peak area peptide t7)×100]/peak area peptide t0.
The stability is expressed as “% remaining peptide”.

[2] = Solubility testing in buffer (HPLC-UV); type: physicochemical
human GLP-1 receptor = biological target: T1, human GLP-1 receptor (Homo sapiens, UniProt P43220); experiment: cAMP response of HEK-293 cells stably expressing human GLP-1 receptor (HTRF); type: cell-based; conditions: Table 6; read-out: EC50 hGLP-1R
T1 construct: expressed in transfected cells; host or cells: HEK-293
T1 sequence (P43220 24-463): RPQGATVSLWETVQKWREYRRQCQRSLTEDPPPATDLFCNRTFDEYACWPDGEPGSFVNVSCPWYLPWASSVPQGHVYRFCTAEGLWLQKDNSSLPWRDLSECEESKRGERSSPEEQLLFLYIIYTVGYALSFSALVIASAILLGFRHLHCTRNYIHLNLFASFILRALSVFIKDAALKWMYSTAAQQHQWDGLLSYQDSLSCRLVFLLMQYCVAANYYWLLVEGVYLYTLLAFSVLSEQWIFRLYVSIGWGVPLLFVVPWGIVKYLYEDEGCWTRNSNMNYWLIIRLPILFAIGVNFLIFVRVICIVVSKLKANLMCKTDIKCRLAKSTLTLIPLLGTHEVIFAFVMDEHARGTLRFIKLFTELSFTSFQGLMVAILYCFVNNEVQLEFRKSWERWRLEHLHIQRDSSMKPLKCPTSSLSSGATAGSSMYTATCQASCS
Outline: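 HEK-293 cells stably expressing the receptor were taken up in HBSS/20 mM HEPES/0.1% BSA with 2 mM IBMX at 400000 cells/ml. They were exposed to increasing concentrations of peptide for 30 minutes at room temperature, and formed cAMP was measured by HTRF.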

human GIP receptor = biological target: T2, human GIP receptor (Homo sapiens, UniProt P48546); experiment: cAMP response of HEK-293 cells stably expressing human GIP receptor (HTRF); type: cell-based; conditions: Table 6; read-out: EC50 hGIP-R
T2 construct: expressed in transfected cells; host or cells: HEK-293
T2 sequence (P48546 22-466): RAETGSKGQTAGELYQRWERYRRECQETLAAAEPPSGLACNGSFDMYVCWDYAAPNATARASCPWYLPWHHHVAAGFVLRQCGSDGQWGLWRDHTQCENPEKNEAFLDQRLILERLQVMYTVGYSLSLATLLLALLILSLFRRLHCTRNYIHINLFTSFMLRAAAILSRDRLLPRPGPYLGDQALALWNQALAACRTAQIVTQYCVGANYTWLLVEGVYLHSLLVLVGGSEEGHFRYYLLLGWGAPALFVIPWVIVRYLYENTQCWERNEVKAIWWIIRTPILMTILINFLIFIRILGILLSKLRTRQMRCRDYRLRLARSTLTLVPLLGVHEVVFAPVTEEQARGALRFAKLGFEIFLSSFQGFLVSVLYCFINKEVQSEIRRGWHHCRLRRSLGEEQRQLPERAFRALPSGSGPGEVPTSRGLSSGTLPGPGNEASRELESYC
Procedure: (§1) For preparation, cells were split into T175 culture flasks and grown overnight to near confluency in medium (DMEM/10% FBS). Medium was then removed and cells washed with PBS lacking calcium and magnesium, followed by proteinase treatment with accutase (Sigma-Aldrich cat. no. A6964). Detached cells were washed and resuspended in assay buffer (1×HBSS; 20 mM HEPES, 0.1% BSA, 2 mM IBMX) and cellular density determined. They were then diluted to 400000 cells/ml and 25 μl-aliquots dispensed into the wells of 96-well plates. For measurement, 25 μl of test compound in assay buffer was added to the wells, followed by incubation for 30 minutes at room temperature. […] Potencies of peptidic compounds at the GLP-1, glucagon and GIP receptors were determined by exposing cells expressing human glucagon receptor (hGlucagon R), human GIP receptor (hGIP-R) or human GLP-1 receptor (hGLP-1R) to the listed compounds at increasing concentrations and measuring the formed cAMP as described in Methods.

human glucagon receptor = biological target: T3, human glucagon receptor (Homo sapiens, UniProt P47871); experiment: cAMP response of HEK-293 cells stably expressing human glucagon receptor (HTRF); type: cell-based; conditions: Table 6; read-out: EC50 hGlucagon-R
T3 construct: expressed in transfected cells; host or cells: HEK-293
T3 sequence (P47871 26-477): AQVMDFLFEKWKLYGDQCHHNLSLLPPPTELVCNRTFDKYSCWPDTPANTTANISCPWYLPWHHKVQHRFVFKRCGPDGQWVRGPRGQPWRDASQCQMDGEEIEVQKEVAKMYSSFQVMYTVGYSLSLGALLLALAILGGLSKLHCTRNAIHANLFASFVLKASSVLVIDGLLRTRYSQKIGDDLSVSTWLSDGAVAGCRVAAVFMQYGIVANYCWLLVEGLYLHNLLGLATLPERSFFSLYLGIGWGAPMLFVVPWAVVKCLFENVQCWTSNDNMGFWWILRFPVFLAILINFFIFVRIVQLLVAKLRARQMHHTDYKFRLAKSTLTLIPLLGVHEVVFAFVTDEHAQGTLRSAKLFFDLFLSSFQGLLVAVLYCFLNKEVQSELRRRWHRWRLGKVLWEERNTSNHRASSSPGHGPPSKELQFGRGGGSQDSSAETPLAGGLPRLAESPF
Procedure: as §1

[3] = tested on: female diet-induced obese (DIO) C57BL/6 mice; experiment: Chronic effect on body weight and body fat in female DIO C57BL/6 mice; type: in vivo; conditions: 50 μg/kg bid s.c., 4 weeks; for Body fat change: NMR; for Body fat change / Overall weight change: mean ± SEM
Procedure: (§2) C57BL/6 Harlan mice are housed in groups in a specific pathogen-free barrier facility on a 12 h light/dark cycle with free access to water and standard or high-fat diet. After prefeeding on high-fat diet, mice are stratified to treatment groups (n=8), so that each group has similar mean body weight. An age-matched group with ad-libitum access to standard chow is included as standard control group. Before the experiment, mice are subcutaneously (s.c.) injected with vehicle solution and weighed for 3 days to acclimate them to the procedures.
Body weight is recorded daily. Two days before start of treatment and on day 26, total fat mass is measured by nuclear magnetic resonance (NMR).
(§3) Statistical analyses are performed with Everstat 6.0 by repeated measures two-way ANOVA and Dunnetts post-hoc analyses (glucose profile) and 1-way-ANOVA, followed by Dunnetts post-hoc test (body weight, body fat). Differences versus vehicle-treated DIO control mice are considered statistically significant at the p<0.05 level.
Female obese C57BL/6 mice were treated for 4 weeks twice daily subcutaneously with 50 μg/kg SEQ ID NO: 6, 50 μg/kg SEQ ID NO: 7 or vehicle. Body weight was recorded daily, and body fat content was determined before the start and after 4 weeks of treatment. […] These changes resulted from a decrease in body fat, as shown by the absolute changes in body fat content (Table 10, FIG. 3).
Female obese C57BL/6 mice were treated for 4 weeks twice daily subcutaneously with 50 μg/kg SEQ ID NO: 9 or vehicle. Body weight was recorded daily, and body fat content was determined before the start and after 4 weeks of treatment.

[4] = Pharmacokinetic testing in mice, 1 mg/kg s.c. (LC/MS); type: in vivo; conditions: mouse, plasma, sc
Procedure: Mice were dosed 1 mg/kg subcutaneously (s.c.). The mice were sacrificed and blood samples were collected after 0.25, 0.5, 1, 2, 4, 8, 16 and 24 hours post application. Plasma samples were analyzed after protein precipitation via liquid chromatography mass spectrometry (LC/MS). PK parameters and half-life were calculated using WinonLin Version 5.2.1 (non-compartment model).

[5] = tested on: female diet-induced obese (DIO) C57BL/6 mice; experiment: Acute effect on blood glucose in fed female DIO C57BL/6 mice; type: in vivo; conditions: 50 μg/kg s.c., profile over 24 h
Procedure: as §2
The volume of administration is 5 mL/kg. The animals have access to water and their corresponding diet during the experiment. Blood glucose levels are measured at t=0 h, t=1 h, t=2 h, t=3 h, t=4 h, t=6 h and t=24 h (method: Accu-Check glucometer). Blood sampling is performed by tail incision without anaesthesia.
as §3, with “level. […]” for “level.”

[6] = pH 4.5, target concentration 10 mg/ml, read-out: solubility pH 4.5
[7] = pH 7.4, target concentration 10 mg/ml, read-out: solubility pH 7.4

CCCCCCCCCCCCCCCC(=O)N[C@@H](CCC(=O)N[C@@H](CCC(=O)NCCCC[C@H](NC(=O)[C@H](CCC(N)=O)NC(=O)[C@H](CCCCN)NC(=O)[C@H](CO)NC(=O)[C@H](CC(C)C)NC(=O)[C@H](CC(=O)O)NC(=O)[C@H](CO)NC(=O)[C@@H](NC(=O)[C@H](Cc1ccccc1)NC(=O)[C@@H](NC(=O)CNC(=O)[C@H](Cc1c[nH]cn1)NC(=O)[C@@H](CO)NC(=O)[C@@H](N)Cc1c[nH]cn1)[C@@H](C)O)[C@@H](C)O)C(=O)N[C@@H](CC(=O)O)C(=O)N[C@@H](CCC(=O)O)C(=O)N[C@@H](CCC(=O)O)C(=O)N[C@@H](C)C(=O)N[C@@H](C)C(=O)N[C@@H](CCCNC(=N)N)C(=O)N[C@@H](CC(C)C)C(=O)N[C@@H](Cc1ccccc1)C(=O)N[C@H](C(=O)N[C@@H](CCC(=O)O)C(=O)N[C@@H](Cc1c[nH]c2ccccc12)C(=O)N[C@@H](CC(C)C)C(=O)NC(C)(C)C(=O)N[C@@H](C)C(=O)NCC(=O)NCC(=O)N1CCC[C@H]1C(=O)N[C@@H](CO)C(=O)N[C@@H](CO)C(=O)NCC(=O)N[C@@H](C)C(=O)N1CCC[C@H]1C(=O)N1CCC[C@H]1C(=O)N1CCC[C@H]1C(=O)N[C@@H](CO)C(N)=O)[C@@H](C)CC)C(=O)O)C(=O)O [SEQ ID NO: 7, H-dSer-H-G-T-F-T-S-D-L-S-K-Q-K(γE-γE-x53)-D-E-E-A-A-R-L-F-I-E-W-L-Aib-A-G-G-P-S-S-G-A-P-P-P-S-NH2]
Stability pH 4.5 [1]: 100.0 % remaining peptide
Stability pH 7.4 [1]: 90.0 % remaining peptide
solubility at 2 h [2, 6]: 2200 µg/mL (≈ 479 µM)
solubility at 2 h [2, 7]: > 8000 µg/mL
EC50 (human GLP-1 receptor): 1.5 pM
EC50 (human GIP receptor): 0.908 nM
EC50 (human glucagon receptor): 0.009 nM
daily body weight compared to vehicle DIO control mice [3]: decrease in daily body weight
Body fat change ([3]; Table 10 (Example 7)): -5.12 ± 0.6 g
Overall weight change ([3]; Table 10 (Example 7)): -7.25 ± 0.7 g

CCCCCCCCCCCCCCCC(=O)N[C@@H](CCC(=O)N[C@@H](CCC(=O)NCCCC[C@H](NC(=O)[C@H](CCC(N)=O)NC(=O)[C@H](CCCCN)NC(=O)[C@H](CO)NC(=O)[C@H](CC(C)C)NC(=O)[C@H](CC(=O)O)NC(=O)[C@H](CO)NC(=O)[C@@H](NC(=O)[C@H](Cc1ccccc1)NC(=O)[C@@H](NC(=O)CNC(=O)[C@H](CCC(N)=O)NC(=O)[C@@H](CO)NC(=O)[C@@H](N)Cc1c[nH]cn1)[C@@H](C)O)[C@@H](C)O)C(=O)N[C@@H](CC(=O)O)C(=O)N[C@@H](CCC(=O)O)C(=O)N[C@@H](CCC(=O)O)C(=O)N[C@@H](C)C(=O)N[C@@H](C)C(=O)N[C@@H](CCCNC(=N)N)C(=O)N[C@@H](CC(C)C)C(=O)N[C@@H](Cc1ccccc1)C(=O)N[C@H](C(=O)N[C@@H](CCC(=O)O)C(=O)N[C@@H](Cc1c[nH]c2ccccc12)C(=O)N[C@@H](CC(C)C)C(=O)NC(C)(C)C(=O)N[C@@H](C)C(=O)NCC(=O)NCC(=O)N1CCC[C@H]1C(=O)N[C@@H](CO)C(=O)N[C@@H](CO)C(=O)NCC(=O)N[C@@H](C)C(=O)N1CCC[C@H]1C(=O)N1CCC[C@H]1C(=O)N1CCC[C@H]1C(=O)N[C@@H](CO)C(N)=O)[C@@H](C)CC)C(=O)O)C(=O)O [SEQ ID NO: 9, H-dSer-Q-G-T-F-T-S-D-L-S-K-Q-K(γE-γE-x53)-D-E-E-A-A-R-L-F-I-E-W-L-Aib-A-G-G-P-S-S-G-A-P-P-P-S-NH2]
Cmax [4]: 6560 ng/mL
half-life [4]: 228 min
Stability pH 4.5 [1]: 77.0 % remaining peptide
Stability pH 7.4 [1]: 93.0 % remaining peptide
solubility at 2 h [2, 6]: 2200 µg/mL (≈ 480 µM)
solubility at 2 h [2, 7]: > 8000 µg/mL
blood glucose compared to DIO control [5]: decrease in blood glucose
EC50 (human GLP-1 receptor): 1.8 pM
EC50 (human GIP receptor): 3.6 nM
EC50 (human glucagon receptor): 0.0118 nM
daily body weight compared to vehicle DIO control mice [3]: decrease in daily body weight
Body fat change ([3]; Table 11 (Example 8)): -5.65 ± 0.9 g
Overall weight change ([3]; Table 11 (Example 8)): -6.56 ± 1.0 g
